Common to all, as to format: functional
In test [1] the target is Mothers against decapentaplegic homolog 3 (Homo sapiens, UniProt P84022). Nature of the test: Smad3 binding inhibitors, lysate ELISA, dose response, cell lysate, secondary confirmation, chemiluminescent ELISA, HEK293 lysate (AID 1058). A general note: In an ELISA, binding on a coated surface is turned into a signal by an enzyme label.
Test [2] in a line: HEp-2 cell cytotoxicity, dose response, cytotoxicity control for RSV inhibitor project, HTS (AID 2410). To be noted: human respiratory syncytial virus.
In test [3] the target is T1, Neuropeptide Y receptor type 1 (Homo sapiens, UniProt P25929).
T1 sequence (P25929 whole entry): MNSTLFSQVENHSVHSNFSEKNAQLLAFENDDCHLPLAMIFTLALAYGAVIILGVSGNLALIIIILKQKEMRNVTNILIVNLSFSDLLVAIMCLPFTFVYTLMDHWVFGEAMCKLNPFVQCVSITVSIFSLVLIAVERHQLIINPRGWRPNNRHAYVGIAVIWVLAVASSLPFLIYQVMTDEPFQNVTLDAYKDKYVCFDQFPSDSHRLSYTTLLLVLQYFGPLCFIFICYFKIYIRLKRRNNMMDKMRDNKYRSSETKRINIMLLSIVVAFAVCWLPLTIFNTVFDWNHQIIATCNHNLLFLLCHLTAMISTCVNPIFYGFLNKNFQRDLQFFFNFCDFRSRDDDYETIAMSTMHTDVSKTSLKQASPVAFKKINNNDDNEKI
Nature of the test: Fluorescence-based counterscreen for agonists of NPY-Y2: cell-based high-throughput dose response assay for agonists of NPY-Y1. Background: The purpose of a counterscreen is to sort out artefacts and off-target activity.

Test [4] concerns HEK293. Nature of the test: Fluorescence-based counterscreen for potentiators or agonists of NPY-Y2: cell-based high-throughput dose response assay to identify inhibitors of cyclic nucleotide gated ion channel (CNGC) activity. In this assay, the parental HEK293 cell line transfected with a cyclic-nucleotide gated ion channel (CNGC)-based cAMP sensor is used to measure inhibition of isoproterenol-induced CNGC activity by test compound. To be noted: Homo sapiens.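 Also: stimulus is 1 µM isoproterenol at EC100 plus PDE inhibitor Ro 20-1724 at 25 µM.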

In test [5] the target is T2, Neuropeptide Y receptor type 2 (Homo sapiens, UniProt P49146).
T2 sequence (P49146 whole entry): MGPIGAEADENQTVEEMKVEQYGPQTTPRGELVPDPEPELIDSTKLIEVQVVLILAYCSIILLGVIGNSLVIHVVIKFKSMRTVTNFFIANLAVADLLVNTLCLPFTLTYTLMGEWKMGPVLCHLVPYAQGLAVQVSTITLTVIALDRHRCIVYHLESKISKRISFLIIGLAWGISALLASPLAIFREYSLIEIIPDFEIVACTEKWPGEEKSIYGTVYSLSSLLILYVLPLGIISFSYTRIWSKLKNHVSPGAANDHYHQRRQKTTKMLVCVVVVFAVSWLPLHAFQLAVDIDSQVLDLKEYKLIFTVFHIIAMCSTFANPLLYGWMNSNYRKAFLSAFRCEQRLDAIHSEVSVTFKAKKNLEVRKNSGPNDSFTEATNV
Nature of the test: Fluorescence-based cell-based high-throughput dose response assay for agonists of NPY-Y2. [Related pubchem assays: 1703 (Screening assay (CNGC inhibitors).), 1359 (Screening assay (NPY-Y2 potentiators or agonists).), 1304 (Screening assay (NPY-Y1 potentiators or agonists).), 1710 (Screening assay (NPY-Y2 agonists).), 1791 (Summary AID.)].

Our source for the IC50, CC50 and EC50 values is ChEMBL document CHEMBL1201862, “PubChem BioAssay data set” (2004).

SMILES strings stand for the structures. Calls of active or inactive are those of the source. Rule as the data show it, for most assays here: active = EC50 of 10 µM or less and inactive = more.

Sequence of Mothers against decapentaplegic homolog 3 (P84022 whole entry): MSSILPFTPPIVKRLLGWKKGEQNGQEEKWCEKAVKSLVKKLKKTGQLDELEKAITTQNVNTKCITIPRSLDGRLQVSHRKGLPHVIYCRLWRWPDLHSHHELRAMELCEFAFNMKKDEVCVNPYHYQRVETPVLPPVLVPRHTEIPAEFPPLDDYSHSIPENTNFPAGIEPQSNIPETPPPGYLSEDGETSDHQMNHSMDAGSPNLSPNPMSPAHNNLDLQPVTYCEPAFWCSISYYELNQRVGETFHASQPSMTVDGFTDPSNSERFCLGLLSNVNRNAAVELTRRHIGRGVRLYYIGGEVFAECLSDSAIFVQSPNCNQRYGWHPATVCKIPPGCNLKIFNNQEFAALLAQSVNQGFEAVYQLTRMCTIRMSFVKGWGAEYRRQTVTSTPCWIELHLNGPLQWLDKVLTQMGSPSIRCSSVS

For orientation: IC50 means the concentration at which inhibition is half-maximal. Lower therefore signals greater potency. For the compound `COc1ccc(C(c2cc3c(cc2O)OCO3)N2CCOCC2)c(OC)c1OC` (stereo not given), in test [1], the IC50 is 3.97 µM (not active).

A word on the CC50: it is the concentration that lowers cell viability or growth by half. By EC50 is commonly meant the concentration needed to bring the measured effect to its halfway point. In the case of `CC(=O)Nc1ccc(-c2cc3ccccc3o2)cc1`, the CC50 in test [2] is 28.2 µM (active). For the same compound, the EC50 in test [3] was 28.9 µM (not active); in test [4], 27.4 µM (not active); in test [5] it was > 35.4 µM (not active).
